# Measurements as given in ChEMBL document CHEMBL3132769, “Fragment growing to retain or alter the selectivity of anchored kinase hinge-binding fragments” (Medchemcomm, 2014).
# Assays:
# [1] = target: Proto-oncogene tyrosine-protein kinase Src (Homo sapiens) (UniProt P12931); assay: Inhibition of human full length SRC expressed in baculovirus assessed as substrate phosphorylation using fluorescence-labelled peptides as substrate at 0.06 uM after 90 mins by microfluidic peptide phosphorylation assay
# [2] = target: T1, Serine/threonine-protein kinase BRSK2 (Homo sapiens) (UniProt Q8IWQ3); assay: Inhibition of human truncated BRSK2 expressed in baculovirus assessed as substrate phosphorylation using fluorescence-labelled peptides as substrate at 420 uM after 90 mins by microfluidic peptide phosphorylation assay
# T1 sequence (whole entry): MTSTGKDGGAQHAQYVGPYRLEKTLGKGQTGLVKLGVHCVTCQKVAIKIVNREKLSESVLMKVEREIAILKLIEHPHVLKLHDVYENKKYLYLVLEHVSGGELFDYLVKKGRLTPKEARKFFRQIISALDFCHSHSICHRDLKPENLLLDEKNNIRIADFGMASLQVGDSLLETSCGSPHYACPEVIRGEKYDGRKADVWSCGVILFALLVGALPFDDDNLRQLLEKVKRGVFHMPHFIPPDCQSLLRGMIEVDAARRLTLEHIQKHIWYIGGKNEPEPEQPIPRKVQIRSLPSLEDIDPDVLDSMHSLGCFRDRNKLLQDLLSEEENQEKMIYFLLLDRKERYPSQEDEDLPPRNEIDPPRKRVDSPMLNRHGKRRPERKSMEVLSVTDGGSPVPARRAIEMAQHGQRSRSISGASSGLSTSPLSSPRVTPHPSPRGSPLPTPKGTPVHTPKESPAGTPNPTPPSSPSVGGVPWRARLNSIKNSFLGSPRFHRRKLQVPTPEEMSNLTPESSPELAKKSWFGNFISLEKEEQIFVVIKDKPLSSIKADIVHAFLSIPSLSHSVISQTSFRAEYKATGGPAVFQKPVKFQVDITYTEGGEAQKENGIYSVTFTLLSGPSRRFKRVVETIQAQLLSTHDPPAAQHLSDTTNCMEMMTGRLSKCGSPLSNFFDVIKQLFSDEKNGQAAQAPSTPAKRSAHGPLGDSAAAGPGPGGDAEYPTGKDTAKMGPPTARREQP
# [3] = target: T2, Serine/threonine-protein kinase D2 (Homo sapiens) (UniProt Q9BZL6); assay: Inhibition of human full length PKD2 expressed in baculovirus assessed as substrate phosphorylation using fluorescence-labelled peptides as substrate at 0.2 uM after 90 mins by microfluidic peptide phosphorylation assay
# T2 sequence (whole entry): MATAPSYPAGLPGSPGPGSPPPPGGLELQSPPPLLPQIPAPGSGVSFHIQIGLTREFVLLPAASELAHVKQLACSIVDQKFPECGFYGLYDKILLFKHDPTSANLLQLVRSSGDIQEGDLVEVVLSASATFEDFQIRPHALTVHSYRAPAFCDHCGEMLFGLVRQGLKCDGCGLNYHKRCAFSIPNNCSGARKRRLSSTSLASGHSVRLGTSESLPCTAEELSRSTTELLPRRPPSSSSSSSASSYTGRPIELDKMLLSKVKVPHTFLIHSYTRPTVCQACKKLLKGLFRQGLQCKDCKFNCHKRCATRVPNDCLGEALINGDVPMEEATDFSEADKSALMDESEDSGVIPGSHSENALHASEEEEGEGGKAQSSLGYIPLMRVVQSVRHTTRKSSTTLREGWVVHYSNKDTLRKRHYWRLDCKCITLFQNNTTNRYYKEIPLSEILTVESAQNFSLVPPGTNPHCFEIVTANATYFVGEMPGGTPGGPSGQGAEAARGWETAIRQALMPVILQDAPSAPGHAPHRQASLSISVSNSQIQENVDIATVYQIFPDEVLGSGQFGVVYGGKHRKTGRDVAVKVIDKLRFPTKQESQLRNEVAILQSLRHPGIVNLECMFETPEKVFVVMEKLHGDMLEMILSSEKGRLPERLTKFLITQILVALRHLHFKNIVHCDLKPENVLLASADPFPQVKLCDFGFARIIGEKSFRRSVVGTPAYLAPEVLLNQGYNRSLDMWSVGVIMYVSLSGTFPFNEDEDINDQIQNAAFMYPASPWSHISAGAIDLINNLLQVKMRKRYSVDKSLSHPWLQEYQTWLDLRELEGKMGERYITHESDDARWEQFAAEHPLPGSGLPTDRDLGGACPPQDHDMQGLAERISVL
# [4] = target: Ribosomal protein S6 kinase alpha-2 (Homo sapiens) (UniProt Q15349); assay: Inhibition of human full length RSK3 expressed in baculovirus assessed as substrate phosphorylation using fluorescence-labelled peptides as substrate at 9 uM after 90 mins by microfluidic peptide phosphorylation assay
# [5] = target: T3, Inhibitor of nuclear factor kappa-B kinase subunit beta (Homo sapiens) (UniProt O14920); assay: Inhibition of human full length IKK beta expressed in baculovirus assessed as substrate phosphorylation using fluorescence-labelled peptides as substrate at 95 uM after 90 mins by microfluidic peptide phosphorylation assay
# T3 sequence (whole entry): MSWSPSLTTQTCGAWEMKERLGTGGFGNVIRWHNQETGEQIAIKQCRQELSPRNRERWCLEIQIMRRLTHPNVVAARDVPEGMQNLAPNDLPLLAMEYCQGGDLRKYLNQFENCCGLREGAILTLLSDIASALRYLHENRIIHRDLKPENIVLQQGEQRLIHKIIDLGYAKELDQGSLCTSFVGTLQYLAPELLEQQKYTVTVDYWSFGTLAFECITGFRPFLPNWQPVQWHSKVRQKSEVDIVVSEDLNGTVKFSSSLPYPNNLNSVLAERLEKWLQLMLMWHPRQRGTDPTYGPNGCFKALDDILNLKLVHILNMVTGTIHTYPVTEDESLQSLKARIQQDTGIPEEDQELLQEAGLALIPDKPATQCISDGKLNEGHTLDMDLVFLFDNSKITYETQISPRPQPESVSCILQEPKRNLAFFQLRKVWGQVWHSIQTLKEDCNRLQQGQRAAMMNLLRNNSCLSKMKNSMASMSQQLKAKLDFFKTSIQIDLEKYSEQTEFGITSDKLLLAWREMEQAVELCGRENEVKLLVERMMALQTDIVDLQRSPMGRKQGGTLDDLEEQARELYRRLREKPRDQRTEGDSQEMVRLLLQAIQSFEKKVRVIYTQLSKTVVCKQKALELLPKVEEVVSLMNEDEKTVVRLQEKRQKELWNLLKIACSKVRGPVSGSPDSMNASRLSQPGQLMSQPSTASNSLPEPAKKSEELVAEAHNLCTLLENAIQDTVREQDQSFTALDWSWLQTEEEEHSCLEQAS
# [6] = target: Tyrosine-protein kinase Lyn (Homo sapiens) (UniProt P07948); assay: Inhibition of human full length LYN expressed in baculovirus assessed as substrate phosphorylation using fluorescence-labelled peptides as substrate at 95 uM after 90 mins by microfluidic peptide phosphorylation assay
# [7] = target: Tyrosine-protein kinase HCK (Homo sapiens) (UniProt P08631); assay: Inhibition of human HCK catalytic domain expressed in baculovirus assessed as substrate phosphorylation using fluorescence-labelled peptides as substrate at 8 uM after 90 mins by microfluidic peptide phosphorylation assay
# Tyrosine-protein kinase HCK (Homo sapiens), sequence (P08631 2-526 limits assumed): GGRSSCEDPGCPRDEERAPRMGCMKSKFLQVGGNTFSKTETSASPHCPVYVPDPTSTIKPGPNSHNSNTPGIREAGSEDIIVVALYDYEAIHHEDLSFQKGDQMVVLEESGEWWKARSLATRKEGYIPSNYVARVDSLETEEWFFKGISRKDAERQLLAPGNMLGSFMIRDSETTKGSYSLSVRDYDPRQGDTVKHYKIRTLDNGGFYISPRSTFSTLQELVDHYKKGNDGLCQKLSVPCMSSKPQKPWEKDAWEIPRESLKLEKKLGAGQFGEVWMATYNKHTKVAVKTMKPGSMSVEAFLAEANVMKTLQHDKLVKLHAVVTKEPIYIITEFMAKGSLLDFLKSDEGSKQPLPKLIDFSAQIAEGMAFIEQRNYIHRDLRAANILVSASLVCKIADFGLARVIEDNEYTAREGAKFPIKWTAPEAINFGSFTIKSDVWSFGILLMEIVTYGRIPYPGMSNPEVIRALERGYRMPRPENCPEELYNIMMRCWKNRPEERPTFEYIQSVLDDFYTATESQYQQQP
# Proto-oncogene tyrosine-protein kinase Src (Homo sapiens), sequence (P12931 2-536 limits assumed): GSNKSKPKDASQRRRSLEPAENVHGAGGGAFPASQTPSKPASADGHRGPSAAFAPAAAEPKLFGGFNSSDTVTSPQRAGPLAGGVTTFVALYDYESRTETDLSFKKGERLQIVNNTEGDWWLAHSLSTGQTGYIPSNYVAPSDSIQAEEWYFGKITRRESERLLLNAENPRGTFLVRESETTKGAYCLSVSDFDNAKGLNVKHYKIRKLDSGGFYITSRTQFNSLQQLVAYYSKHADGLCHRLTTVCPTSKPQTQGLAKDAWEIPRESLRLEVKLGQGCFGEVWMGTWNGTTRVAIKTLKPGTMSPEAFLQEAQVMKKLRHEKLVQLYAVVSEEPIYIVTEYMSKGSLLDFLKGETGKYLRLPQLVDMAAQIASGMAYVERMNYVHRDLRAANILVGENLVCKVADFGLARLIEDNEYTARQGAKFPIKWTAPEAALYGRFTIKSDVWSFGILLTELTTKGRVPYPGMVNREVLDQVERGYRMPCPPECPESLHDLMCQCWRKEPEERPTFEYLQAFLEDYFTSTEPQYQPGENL
# Ribosomal protein S6 kinase alpha-2 (Homo sapiens), sequence (Q15349 whole entry): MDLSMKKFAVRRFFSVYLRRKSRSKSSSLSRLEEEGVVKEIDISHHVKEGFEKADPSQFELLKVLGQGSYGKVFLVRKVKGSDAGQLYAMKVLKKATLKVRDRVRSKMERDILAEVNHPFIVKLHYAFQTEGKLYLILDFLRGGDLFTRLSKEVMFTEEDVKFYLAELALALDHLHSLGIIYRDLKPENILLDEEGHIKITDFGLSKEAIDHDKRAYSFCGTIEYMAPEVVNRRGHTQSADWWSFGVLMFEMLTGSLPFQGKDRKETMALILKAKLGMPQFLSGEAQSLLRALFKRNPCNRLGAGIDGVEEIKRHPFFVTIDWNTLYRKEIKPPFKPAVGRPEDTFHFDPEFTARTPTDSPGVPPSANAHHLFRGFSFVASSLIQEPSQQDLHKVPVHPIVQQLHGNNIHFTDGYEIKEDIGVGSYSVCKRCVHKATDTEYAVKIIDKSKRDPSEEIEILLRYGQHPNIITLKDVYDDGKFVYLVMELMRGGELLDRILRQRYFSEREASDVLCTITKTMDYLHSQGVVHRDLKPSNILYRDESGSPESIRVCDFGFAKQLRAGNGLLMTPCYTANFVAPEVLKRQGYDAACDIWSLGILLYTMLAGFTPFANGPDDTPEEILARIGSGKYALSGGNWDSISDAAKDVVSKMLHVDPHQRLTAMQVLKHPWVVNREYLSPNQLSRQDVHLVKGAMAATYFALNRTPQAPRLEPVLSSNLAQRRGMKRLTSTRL
# Tyrosine-protein kinase Lyn (Homo sapiens), sequence (P07948 2-512 limits assumed): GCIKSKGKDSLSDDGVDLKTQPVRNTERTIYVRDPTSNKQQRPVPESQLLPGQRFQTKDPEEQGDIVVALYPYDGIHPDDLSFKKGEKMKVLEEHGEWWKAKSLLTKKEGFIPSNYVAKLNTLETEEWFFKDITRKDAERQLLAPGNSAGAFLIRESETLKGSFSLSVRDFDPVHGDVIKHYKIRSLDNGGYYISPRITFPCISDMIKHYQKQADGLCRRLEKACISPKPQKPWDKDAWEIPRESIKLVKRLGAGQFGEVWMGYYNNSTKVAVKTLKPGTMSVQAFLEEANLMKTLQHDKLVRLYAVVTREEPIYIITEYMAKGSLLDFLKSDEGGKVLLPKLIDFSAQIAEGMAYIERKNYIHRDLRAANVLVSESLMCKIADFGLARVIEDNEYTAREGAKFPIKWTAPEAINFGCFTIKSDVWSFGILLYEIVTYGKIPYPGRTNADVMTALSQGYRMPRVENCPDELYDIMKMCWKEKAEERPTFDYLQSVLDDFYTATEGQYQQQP
smiles,measurement,setting,value
NC1(Cc2ccc(Cl)cc2)CCN(c2ncnc3[nH]ccc23)CC1,inhibition,[1],0%
c1nc(N2CCOCC2)c2nc[nH]c2n1,inhibition,[2],60.5%
Clc1ccc(C2(c3ccc(-c4ncnc5[nH]cnc45)cc3)CCNCC2)cc1,inhibition,[3],13%
NCC1CN(c2ncnc3[nH]c4cnccc4c23)CCO1 (configuration not stated),inhibition,[4],95.5%
NCCc1ccc(-c2ncnc3[nH]cnc23)cc1,inhibition,[5],91%
same,inhibition,[6],65.5%
NCC1CCN(c2ncnc3[nH]ccc23)CC1,inhibition,[7],19.5%
